Laboratory results published in ChEMBL document CHEMBL5729210, “Benzodiazepine derivatives as RSV inhibitors” (2022).
Several values for one entry are separate records, joined by “and”; a condition that tells them apart may be missing. Equal values may be shown once.

Test: RSV-A Assay: The description is Japanese.

Compound | EC50
O=C1Nc2ccccc2C(c2ccccc2)=NC1Nc1nnc(-c2ncc(N3CCOCC3)cc2F)o1 (configuration not stated) | < 400 nM
O=C1Nc2ccccc2C(c2ccccc2)=NC1Nc1nnc(CCC(F)(F)F)o1 (configuration not stated) | > 800 nM
O=C1Nc2ccccc2C(c2ccccc2)=NC1Nc1nnc(CCc2ccccc2)o1 (configuration not stated) | > 800 nM
O=C(O)c1ccc(-n2cncn2)cc1N1CCOCC1 | in the range around 600 nM
COC(=O)c1ncc(C#N)cc1N1CCOCC1 | < 400 nM
O=C1Nc2ccccc2C(c2ccccc2)=NC1Nc1nc2ccc(F)cc2o1 (configuration not stated) | > 800 nM
CC(C)c1nnc(NC2N=C(c3ccccc3)c3ccccc3NC2=O)o1 (configuration not stated) | > 800 nM
COC(=O)c1sc(Br)cc1N1CCOCC1 | < 400 nM
O=C1Nc2ccccc2C(c2ccccc2)=N[C@@H]1Nc1nnc(-c2ncc(C3CC3)cc2N2CCOCC2)o1 | < 400 nM
O=C1Nc2ccccc2C(c2ccccc2)=NC1Nc1nnc(-c2ccc(N3CCOCC3)cc2)o1 (configuration not stated) | < 400 nM
Cn1c(N2CCOCC2)c(-c2nnc(N[C@H]3N=C(c4ccccc4)c4ccccc4NC3=O)o2)ccc1=O | < 400 nM
O=C1Nc2ccccc2C(c2ccccc2)=N[C@@H]1Nc1nnc(-c2oc3ccccc3c2N2CCOCC2)o1 | < 400 nM
Cc1nc(-c2nnc(NC3N=C(c4ccccc4)c4ccccc4NC3=O)o2)ccc1F (configuration not stated) | > 800 nM
O=C1Nc2ccccc2C(c2ccccc2)=NC1Nc1nnc(-c2cc(F)ccc2N2CCOCC2)o1 (configuration not stated) | in the range around 600 nM
O=C1Nc2ccccc2C(c2ccccc2)=NC1Nc1nnc(-c2ccc(F)cc2N2CCOCC2)o1 (configuration not stated) | < 400 nM
CCCc1nnc(NC2N=C(c3ccccc3)c3ccccc3NC2=O)o1 (configuration not stated) | > 800 nM
O=C1Nc2ccccc2C(c2ccccc2)=N[C@@H]1Nc1nnc(-c2ccc(N3CCOCC3)cc2F)o1 | < 400 nM
O=C1Nc2ccccc2C(c2ccccc2)=NC1Nc1nnc(-c2cnccc2N2CCOCC2)o1 (configuration not stated) | in the range around 600 nM
O=C1Nc2ccccc2C(c2ccccc2)=N[C@@H]1Nc1nnc(-c2cnc(N3CCOCC3)cn2)o1 | > 800 nM
O=C(O)c1ccncc1N1CCCCC1 | > 800 nM
O=C1Nc2ccccc2C(c2ccccc2)=NC1Nc1nnc(-c2ccncc2N2CCOCC2)o1 (configuration not stated) | in the range around 600 nM
Cn1cc(N2CCOCC2)c(-c2nnc(N[C@H]3N=C(c4ccccc4)c4ccccc4NC3=O)o2)n1 | < 400 nM
COCc1nnc(NC2N=C(c3ccccc3)c3ccccc3NC2=O)o1 (configuration not stated) | > 800 nM
NNC(=O)c1ccc(N2CCOCC2)cc1C(F)(F)F | > 800 nM
O=C1Nc2ccccc2C(c2ccccc2)=N[C@@H]1Nc1nnc(-c2cnc(N3CC4CCC(C3)O4)nc2)o1 | > 800 nM

Compound | EC50
COCCN(C)c1ccc(-c2nnc(NC3N=C(c4ccccc4)c4ccccc4NC3=O)o2)cc1 (configuration not stated) | > 800 nM
O=C1Nc2ccccc2C(c2ccccc2)=N[C@H]1Nc1nnc(-c2ccccc2N2CCOCC2)o1 | > 800 nM
CCc1nc(N2CCOCC2)c(-c2nnc(N[C@H]3N=C(c4ccccc4)c4ccccc4NC3=O)o2)cc1C#N | < 400 nM
O=C1Nc2ccccc2C(c2ccccc2)=NC1Nc1nc2cc(F)ccc2o1 (configuration not stated) | > 800 nM
CCOC(=O)c1cnc(C2CC2)nc1N1CCOCC1 | < 400 nM
O=C1Nc2ccccc2C(c2ccccc2)=NC1Nc1nnc(-c2cccc(F)c2N2CCOCC2)o1 (configuration not stated) | > 800 nM
N#Cc1cnc(N2CCOCC2)c(-c2nnc(N[C@H]3N=C(c4ccccc4)c4ccccc4NC3=O)o2)c1 | < 400 nM
O=C1Nc2ccccc2C(c2ccccc2)=NC1Nc1nnc(C2CCCC2)o1 (configuration not stated) | > 800 nM
O=C1Nc2ccccc2C(c2ccccc2)=NC1Nc1nnc(-c2ccc(N3CCCC3)cc2)o1 (configuration not stated) | in the range around 600 nM
O=C1Nc2ccccc2C(c2ccccc2)=N[C@H]1Nc1nnc(-c2ccc(N3CCOCC3)cc2)o1 | > 800 nM
O=C1Nc2ccccc2C(c2ccccc2)=N[C@H]1Nc1nnc(-c2ccc(N3CCOCC3)cc2F)o1 | > 800 nM
O=C1Nc2ccccc2C(c2ccccc2)=NC1Nc1nnc(-c2ccc(-n3cccn3)cc2N2CCOCC2)o1 (configuration not stated) | < 400 nM
O=C1Nc2ccccc2C(c2ccccc2)=NC1Nc1nnc(-c2ncc(C(F)(F)F)cc2N2CCOCC2)o1 (configuration not stated) | < 400 nM
O=C1Nc2ccccc2C(c2ccccc2)=NC1Nc1nnc(C2CCC2)o1 (configuration not stated) | > 800 nM
O=C1Nc2ccccc2C(c2ccccc2)=NC1Nc1nnc(-c2ccc(F)nc2N2CCOCC2)o1 (configuration not stated) | in the range around 600 nM and < 400 nM
O=C1Nc2ccccc2C(c2ccccc2)=N[C@@H]1Nc1nnc(-c2ccccc2N2CCOCC2)o1 | < 400 nM
O=C1Nc2ccccc2C(c2ccccc2)=NC1Nc1nnc([C@H]2CCCO2)o1 (some centres not stated) | > 800 nM
Cc1ccc(C(=O)O)c(N2CCOCC2)n1 | < 400 nM
O=C1Nc2ccccc2C(c2ccccc2)=NC1Nc1nnc(-c2ccc(N3CCOCC3)nc2)o1 (configuration not stated) | < 400 nM
O=C1Nc2ccccc2C(c2ccccc2)=N[C@@H]1Nc1nnc(-c2cnc(-n3cncn3)nc2N2CCOCC2)o1 | > 800 nM
Cc1nc(N2CCOCC2)c(-c2nnc(N[C@H]3N=C(c4ccccc4)c4ccccc4NC3=O)o2)cc1C#N | < 400 nM
O=C1Nc2ccccc2C(c2ccccc2)=N[C@@H]1Nc1nnc(-c2cnc(N3CCOCC3)nc2)o1 | in the range around 600 nM
O=C1Nc2ccccc2C(c2ccccc2)=N[C@@H]1Nc1nnc(-c2ccc(C(F)(F)F)cc2N2CCOCC2)o1 | < 400 nM
O=C1Nc2ccccc2C(c2ccccc2)=NC1Nc1nnc(-c2c(F)cc(N3CCOCC3)cc2F)o1 (configuration not stated) | > 800 nM
CC1(c2nnc(NC3N=C(c4ccccc4)c4ccccc4NC3=O)o2)CC1 (configuration not stated) | > 800 nM

Compound | EC50
NNC(=O)c1cc(F)cnc1N1CCOCC1 | in the range around 600 nM
O=C1Nc2ccccc2C(c2ccccc2)=N[C@@H]1Nc1nnc(-c2cnc(-n3cccn3)nc2N2CCOCC2)o1 | > 800 nM
CN(C)c1ccc(-c2nnc(NC3N=C(c4ccccc4)c4ccccc4NC3=O)o2)nc1 (configuration not stated) | > 800 nM
N#CCCc1nnc(NC2N=C(c3ccccc3)c3ccccc3NC2=O)o1 (configuration not stated) | > 800 nM
N#Cc1cnc(-c2nnc(NC3N=C(c4ccccc4)c4ccccc4NC3=O)o2)c(N2CCOCC2)c1 (configuration not stated) | < 400 nM
O=C1Nc2ccccc2C(c2ccccc2)=NC1Nc1nnc(-c2cccnc2N2CCOCC2)o1 (configuration not stated) | < 400 nM
O=C1Nc2ccccc2C(c2ccccc2)=NC1Nc1nnc(-c2ccc(N3CCOCC3)c(F)c2)o1 (configuration not stated) | > 800 nM
Cn1cc(-c2nnc(N[C@H]3N=C(c4ccccc4)c4ccccc4NC3=O)o2)c(N2CCOCC2)n1 | < 400 nM
O=C1Nc2ccccc2C(c2ccccc2)=NC1Nc1nnc(-c2ccc(C(F)(F)F)cc2N2CCOCC2)o1 (configuration not stated) | < 400 nM
CCOC(=O)c1nc2ccccn2c1N | > 800 nM
O=C1Nc2ccccc2C(c2ccccc2)=NC1Nc1nc2c(F)cccc2o1 (configuration not stated) | > 800 nM
CS(=O)(=O)Cc1nnc(NC2N=C(c3ccccc3)c3ccccc3NC2=O)o1 (configuration not stated) | > 800 nM
N#Cc1ccc(-c2nnc(N[C@H]3N=C(c4ccccc4)c4ccccc4NC3=O)o2)c(N2CCOCC2)c1 | < 400 nM
Cc1ccc2oc(NC3N=C(c4ccccc4)c4ccccc4NC3=O)nc2c1 (configuration not stated) | > 800 nM
O=C1Nc2ccccc2C(c2ccccc2)=NC1Nc1nnc(-c2ccc(N3CCOCC3)cn2)o1 (configuration not stated) | > 800 nM
COCCNc1ccc(-c2nnc(NC3N=C(c4ccccc4)c4ccccc4NC3=O)o2)cc1 (configuration not stated) | > 800 nM
O=C(O)c1cnc(C(F)(F)F)nc1N1CCOCC1 | < 400 nM
O=C1Nc2ccccc2C(c2ccccc2)=N[C@@H]1Nc1nnc(-c2ccc(F)nc2N2CCOCC2)o1 | < 400 nM
Cn1ncc(N2CCOCC2)c1-c1nnc(N[C@H]2N=C(c3ccccc3)c3ccccc3NC2=O)o1 | in the range around 600 nM
COC(=O)c1ccc(Cl)nc1N1CCOCC1 | < 400 nM
COc1ccc(CN2C(=O)C(C)(N=[N+]=[N-])N=C(c3ccccc3)c3ccccc32)cc1 (configuration not stated) | > 800 nM
COC(=O)c1cc(Br)c(C2CC2)nc1Cl | < 400 nM
N#Cc1ccc(-c2nnc(NC3N=C(c4ccccc4)c4ccccc4NC3=O)o2)s1 (configuration not stated) | < 400 nM
O=C1Nc2ccccc2C(c2ccccc2)=NC1Nc1nnc(-c2ncc(N3CCOCC3)cc2Cl)o1 (configuration not stated) | > 800 nM
O=C1Nc2ccccc2C(c2ccccc2)=NC1Nc1nnc(-c2ccc(N3CCOCC3)cc2Cl)o1 (configuration not stated) | > 800 nM

Compound | EC50
O=C1Nc2ccccc2C(c2ccccc2)=NC1Nc1nnc(-c2cnccc2N2CCCCC2)o1 (configuration not stated) | > 800 nM
Cc1cc(-c2nnc(NC3N=C(c4ccccc4)c4ccccc4NC3=O)o2)ccc1N1CCOCC1 (configuration not stated) | in the range around 600 nM
COc1ccc(-c2nnc(NC3N=C(c4ccccc4)c4ccccc4NC3=O)o2)nc1Cl (configuration not stated) | > 800 nM
N#Cc1ccc(-c2nnc(NC3N=C(c4ccccc4)c4ccccc4NC3=O)o2)c(N2CCOCC2)c1 (configuration not stated) | < 400 nM
CS(=O)(=O)c1ccc(-c2nnc(NC3N=C(c4ccccc4)c4ccccc4NC3=O)o2)nc1 (configuration not stated) | > 800 nM
Cc1nc2ccc(-c3nnc(NC4N=C(c5ccccc5)c5ccccc5NC4=O)o3)cc2s1 (configuration not stated) | in the range around 600 nM
O=C1Nc2ccccc2C(c2ccccc2)=N[C@@H]1Nc1nnc(-c2ncc(Br)cc2N2CCOCC2)o1 | < 400 nM
CS(=O)(=O)c1ccc(-c2nnc(NC3N=C(c4ccccc4)c4ccccc4NC3=O)o2)c(N2CCOCC2)c1 (configuration not stated) | > 800 nM
Cn1ncc(-c2nnc(N[C@H]3N=C(c4ccccc4)c4ccccc4NC3=O)o2)c1N1CCOCC1 | > 800 nM
COc1cnc(-c2nnc(NC3N=C(c4ccccc4)c4ccccc4NC3=O)o2)c(F)c1 (configuration not stated) | > 800 nM
O=C1Nc2ccccc2C(c2ccccc2)=NC1Nc1nc2ccccc2s1 (configuration not stated) | > 800 nM
O=C1Nc2ccccc2C(c2ccccc2)=NC1Nc1nnc(-c2ccc(C(F)(F)F)nc2N2CCOCC2)o1 (configuration not stated) | in the range around 600 nM
CCOC(=O)c1c(F)cc(F)cc1F | > 800 nM
O=C1Nc2ccccc2C(c2ccccc2)=NC1Nc1nnc(-c2ccc(NC3CCCCC3)cc2)o1 (configuration not stated) | > 800 nM
CCOC(=O)c1ccc(F)cc1N1CCOCC1 | < 400 nM
O=C1Nc2ccccc2C(c2ccccc2)=NC1Nc1nnc(-c2cccc(N3CCOCC3)c2)o1 (configuration not stated) | > 800 nM
CCOC(=O)c1ccc(C2CC2)nc1Cl | < 400 nM
CC(C)(C)c1nnc(NC2N=C(c3ccccc3)c3ccccc3NC2=O)o1 (configuration not stated) | > 800 nM
Cn1nnc(-c2ccc(-c3nnc(NC4N=C(c5ccccc5)c5ccccc5NC4=O)o3)cc2)n1 (configuration not stated) | > 800 nM
CCOC(=O)c1ncccc1N1CCOCC1 | < 400 nM
O=C1Nc2ccccc2C(c2ccccc2)=NC1Nc1nnc(-c2nccnc2N2CCOCC2)o1 (configuration not stated) | < 400 nM
O=C1Nc2ccccc2C(c2ccccc2)=NC1Nc1nnc(-c2cc(C(F)(F)F)cnc2N2CCOCC2)o1 (configuration not stated) | > 800 nM
